Measured values: patent publication US4226610A, “Herbicidal compounds, preparation thereof and herbicides containing the same” (Meiji Selka Kaisha, Ltd., priority 1978, dated 1980)

Legend:
yamazakura = experiment: Experiment 3 foliar application to naturally growing shrubs; type: in vivo, Prunus donarium Sieb. var. spontanae Makino; settings: after 3 months
In short: (§1)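 Compounds, diluted to prescribed concentrations with 0.1% octylphenyl polyoxyethanol as surfactant, were sprayed onto the foliage of naturally growing shrubs at 150 liter per 10 are. Kill was scored on a 0 (no effect) to 5 (death) index at 1 and 3 months. Regrowth was graded from − (no reproduction) to +++ (maximum) at 3 months.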

warunasubi = experiment: Experiment 1 foliar application to naturally growing weeds; type: in vivo, Solanum carolinensis L.; settings: for Reproduction-inhibiting effect: 4 months
In short: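 Read-outs were a 0–5 killing index at 21 days and a reproduction score from (-), no reproduction, to (+++), no suppression. Reproduction was read at 2 months for cockspar grass and 4 months for the other species, after foliar spraying at 150 liter per 10 are with 0.1% surfactant.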

water hyacinth [1] = experiment: Experiment 6 spray on aquatic plants in concrete pots; type: in vivo, Eichhornia crassipes Solms; settings: 3 months
Source text: (§2) The detail of the assessment made in the following Experiments of the invention was as follows:
(§3) Four months after treatment, evaluation was made for inhibition of reproduction expressed in terms of symbols ranging from (-) to (+++) where (-) means no reproduction, namely complete suppression of reproduction, (±) remarkable suppression of reproduction; (+) considerable suppression of reproduction; (++) medium supprestion of reproduction; and (+++) no suppression of reproduction.
(§4) A paddy field soil was packed in 50 cm. square concrete pots. omodaka (Sagittaria trifolia L.), urikawa (Sagittaria pygmaea Miq.), prog-bit (Hydrocharis dubia) and aginashi (Sagittaria Aginashi Makino) were transplanted; then water was poured onto the soil at 5 cm. depth.
(§5) Further, water hyacinth, greater-duckweed (Spirodela polyrhiza Schleid.) and duckweed (Lemna paucicostata Hegelm) were floated on the water.
(§6) After one month, the compounds of the invention diluted to the prescribed concentrations as indicated in Table 8 were sprayed in an amount of 100 liter per 10 are. As a surfactant, 0.1% of octylphenyl polyoxyethanol was added thereto.
(§7) The killing index (0, no effect; 5, death) after 21 days and 3 months and the reproduction-inhibiting effect (-, no reproduction; +++, maximum reproduction) after 3 months were determined.

pond scum = experiment: Experiment 7 application to water; type: in vivo, Spirogira crassa Kutz.; parameters: scale not given here
Source text: (§8) A black soil was packed in 50 cm. square concrete pots and water was poured there-onto at 50 cm. in depth. Hornwort (Ceratophyllum demersum L.), stonewort (Chara Braunii Gmel.) and salvinia (Salvinia natans All.) were transplanted and pond scum (Spirogira crassa Kutz) and diatoms (Bacillariophyta) were floated in the water.
(§9) Then, the compounds of the invention were applied dropwise onto the surface of the water so that the prescribed concentrations in the water are obtained as indicated in Table 9.

kiichigo = experiment: Experiment 3 foliar application to naturally growing shrubs; type: in vivo, Rubus palmatsu Thunb. forma coptophyllus Makino; settings: after 3 months
In short: as §1

hornwort = experiment: Experiment 7 application to water; type: in vivo, Ceratophyllum demersum L.; parameters: scale not given here
Source text: as §8, §9

salvinia = experiment: Experiment 7 application to water; type: in vivo, Salvinia natans Allioni; parameters: scale not given here
Source text: as §8, §9

oak = experiment: Experiment 3 foliar application to naturally growing shrubs; type: in vivo, Quercus serrata Thunb; settings: after 3 months
In short: as §1

white clover = experiment: Experiment 1 foliar application to naturally growing weeds; type: in vivo, Trifolium repens L.; settings: for Reproduction-inhibiting effect: 4 months
In short: (§10)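 Test compounds, diluted to prescribed concentrations with 0.1% octylphenyl polyoxyethanol surfactant, were sprayed onto foliage of naturally growing weeds at 150 liter per 10 are. Killing index (0, no effect; 5, death) was scored at 21 days. Reproduction was scored from (-), complete suppression, to (+++), none, at 2 months for cockspar grass and 4 months for the other weeds.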

lace shrub = experiment: Experiment 3 foliar application to naturally growing shrubs; type: in vivo, Stephanandra incisa Zabel; settings: after 3 months
In short: as §1

stonewort = experiment: Experiment 7 application to water; type: in vivo, Chara Braunii Gmel.; parameters: scale not given here
Source text: as §8, §9

greaterduckweed = experiment: Experiment 6 spray on aquatic plants in concrete pots; type: in vivo, Spirodela polyrhiza Sohleid.; settings: 3 months
Source text: as §2, §3, §4, §5, §6, §7

Japanese bush cranberry = experiment: Experiment 3 foliar application to naturally growing shrubs; type: in vivo, Viburnum dilatatum Thunb.; settings: after 3 months
In short: as §1

progbit = experiment: Experiment 6 spray on aquatic plants in concrete pots; type: in vivo, Hydrocharis dubia; settings: 3 months
Source text: as §2, §3, §4, §5, §6, §7

urikawa = experiment: as above; type: in vivo, Sagittaria pygmaea Miguel; settings: 3 months
Source text: as §2, §3, §4, §5, §6, §7

hedge bindweed = experiment: Experiment 1 foliar application to naturally growing weeds; type: in vivo, Calystegis hederacea Wall.; settings: 4 months
In short: as §10

water hyacinth [2] = experiment: Experiment 5 foliar application to water hyacinths; type: in vivo, Eichhornia crassipes Solms; settings: 3 months
In short: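 Two plants floated in fertilized water per vessel, sprayed foliarly with 0.1 or 0.2% aqueous compound solutions at 100 liter per 10 are plus 0.1% octylphenyl polyoxyethanol. Killing index (0 no effect to 5 death) scored at 21 days and 3 months; reproduction inhibition scored (-) to (+++) at 3 months.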

## CP(=O)(O)CCC(N)C(=O)O (racemic) [DL-AMPB choline]
yamazakura; 0.05%
  Reproduction-inhibiting: ++
yamazakura; 0.1%
  Reproduction-inhibiting: -
yamazakura; 0.2%
  Reproduction-inhibiting: -
warunasubi; 0.05%
  Reproduction-inhibiting effect: ++
warunasubi; 0.1%
  Reproduction-inhibiting effect: ±
warunasubi; 0.1%, 21 days
  Killing index of Upperground parts: 4.5
warunasubi; 0.2%
  Reproduction-inhibiting effect: -
Water hyacinth [1]; 0.05%
  Reproduction-inhibiting effect: +++
Water hyacinth [1]; 0.1%
  Reproduction-inhibiting effect: ++
Water hyacinth [1]; 0.2%
  Reproduction-inhibiting effect: -
Pond scum; 1 ppm, 3 months
  controlling effect: 1
Pond scum; 1 ppm, 21 days
  controlling effect: 2
Pond scum; 3 ppm, 3 months
  controlling effect: 5
Pond scum; 3 ppm, 21 days
  controlling effect: 4
Pond scum; 10 ppm, 3 months
  controlling effect: 5
Pond scum; 10 ppm, 21 days
  controlling effect: 5
kiichigo; 0.05%
  Reproduction-inhibiting: +
kiichigo; 0.1%
  Killing index: 4.5
  Reproduction-inhibiting: ±
kiichigo; 0.2%
  Reproduction-inhibiting: -
hornwort; 1 ppm, 3 months
  controlling effect: 1
hornwort; 1 ppm, 21 days
  controlling effect: 2
hornwort; 3 ppm, 3 months
  controlling effect: 5
hornwort; 3 ppm, 21 days
  controlling effect: 4.5
hornwort; 10 ppm, 3 months
  controlling effect: 5
hornwort; 10 ppm, 21 days
  controlling effect: 5
salvinia; 1 ppm, 3 months
  controlling effect: 2
salvinia; 1 ppm, 21 days
  controlling effect: 3
salvinia; 3 ppm, 3 months
  controlling effect: 5
salvinia; 3 ppm, 21 days
  controlling effect: 4
salvinia; 10 ppm, 3 months
  controlling effect: 5
salvinia; 10 ppm, 21 days
  controlling effect: 5
oak; 0.05%
  Reproduction-inhibiting: ++
oak; 0.1%
  Reproduction-inhibiting: -
oak; 0.2%
  Reproduction-inhibiting: -
White clover; 0.05%
  Reproduction-inhibiting effect: ++
White clover; 0.05%, 21 days
  Killing index of Upperground parts: 1.5
White clover; 0.1%
  Reproduction-inhibiting effect: ±
White clover; 0.2%
  Reproduction-inhibiting effect: -
Lace shrub; 0.05%
  Reproduction-inhibiting: ++
Lace shrub; 0.1%
  Reproduction-inhibiting: -
Lace shrub; 0.2%
  Reproduction-inhibiting: -
stonewort; 1 ppm, 3 months
  controlling effect: 1
stonewort; 1 ppm, 21 days
  controlling effect: 3
stonewort; 3 ppm, 3 months
  controlling effect: 5
stonewort; 3 ppm, 21 days
  controlling effect: 4.5
stonewort; 10 ppm, 3 months
  controlling effect: 5
stonewort; 10 ppm, 21 days
  controlling effect: 5
greaterduckweed; 0.05%
  Reproduction-inhibiting effect: +
greaterduckweed; 0.1%
  Reproduction-inhibiting effect: -
greaterduckweed; 0.2%
  Reproduction-inhibiting effect: -
Japanese bush cranberry; 0.05%
  Reproduction-inhibiting: +++
Japanese bush cranberry; 0.1%
  Reproduction-inhibiting: ++
Japanese bush cranberry; 0.2%
  Reproduction-inhibiting: +
progbit; 0.05%
  Reproduction-inhibiting effect: ++
progbit; 0.1%
  Reproduction-inhibiting effect: ±
progbit; 0.2%
  Reproduction-inhibiting effect: -
urikawa; 0.05%
  Reproduction-inhibiting effect: ++
urikawa; 0.1%
  Reproduction-inhibiting effect: +
urikawa; 0.2%
  Reproduction-inhibiting effect: -
Hedge bindweed; 0.05%
  Reproduction-inhibiting effect: ++
Hedge bindweed; 0.1%
  Reproduction-inhibiting effect: ±
Hedge bindweed; 0.2%
  Reproduction-inhibiting effect: -
Water hyacinth [2]; 0.1%
  Reproduction-inhibiting effect: +
Water hyacinth [2]; 0.2%
  Reproduction-inhibiting effect: -
